# Patent publication US20240246963A1, “BIFUNCTIONAL COMPOUNDS AND PHARMACEUTICAL USES THEREOF” (RISEN (SUZHOU) PHARMA TECH CO., LTD., priority 2022, published 2024)
# Tests used:
# [1] = molecular target: T1, RAS G12D protein (Homo sapiens, UniProt P01116, G12D); assay: Protein degradation study (western blot) in Aspc-1 cells; assay type: cell-based; conditions: for percent protein degradation at 0.01 µM: 0.010 μM compound; for percent protein degradation at 0.1 µM: 0.1 μM compound; for Dmax: ASPC1, G12D in Aspc-1 cells; for DC50: half-maximum degradation concentration on G12D in Aspc-1 cells
# T1 construct: host or cells: Aspc-1 (AsPC-1) cells
# T1 sequence (P01116 1-188 isoform P01116-2 G12D): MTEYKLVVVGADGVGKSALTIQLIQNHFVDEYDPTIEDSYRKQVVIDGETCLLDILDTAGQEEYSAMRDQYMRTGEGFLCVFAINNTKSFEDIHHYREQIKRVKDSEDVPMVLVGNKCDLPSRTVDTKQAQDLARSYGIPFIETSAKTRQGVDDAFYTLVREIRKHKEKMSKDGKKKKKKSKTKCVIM
# Method: Aspc-1 (Cobioer, CBP60546) cells in exponential growth phase were inoculated on a 6-well cell culture plate (Corning, 3516) at density of 1E6/well; and cells in the plate were cultured in a 37° C. incubator containing 5%-carbon dioxide. The next day, test compounds were dissolved in DMSO (Sigma, RNBF5902) for the preparation of a 10-mM concentration stock solution. The stock solution was diluted with complete medium (RPMI-1640 supplemented with 10% fetal bovine serum, 1% penicillin-streptomycin), yielding working solutions of various concentrations. The plate, after the addition of compounds, was placed in a 5% carbon dioxide incubator, and incubated at 37° C. for 24 hours (final DMSO concentration was 0.1%). The plate was then removed from the incubator, and the cells were washed twice with precooled PBS (Gibco, 14190250), followed by addition of 80 μL RIPA (CST, 9806S) lysis buffer (containing protease inhibitor (Invitrogen™, AM2696)) to each well. The adherent cells were scraped off with a cell scraper, and the cell lysate was transferred to a 1.5 mL centrifuge tube followed with a 30-minute incubation on ice. The lysate was then clarified with centrifugation at 12000 rpm for 10 min at 4° C. The supernatant was transferred into a new 1.5 mL centrifuge tube, and protein concentration was measured with BCA protein detection kit (Thermo Fisher, 23225). G12D protein level was assessed by western blot. A mixture of cell lysate (40 μL) and loading buffer (10 μL, 5×SDS (Beyotime, P0015L)) was denatured in a water-bath at 95° C. for 10 min. The denatured protein sample, at 30 μg/well, was loaded into a corresponding well of a 4-20% Bis-Tris gel (Kingsley, M00656). Protein samples were initially electrophoresed at 80 V for 30 minutes, followed by 120 V for 40 minutes, until the bromophenol blue strip ran to an appropriate position. After electrophoresis, iBlot2 (Life Technologies, IB21001) was used to transfer the separated samples onto PVDF film. The PVDF membrane was washed with double-distilled water and then blocked in TBST (Thermo Scientific, 28360) buffer containing 5% non-fat milk, for 2 hours. Blocked membrane was rinsed with tris-buffered saline tween-2 (Thermo Scientific, 28360, TBST) three times, 10 minutes each. Membrane was then incubated with 1:1000 diluted RAS Gi2D primary antibody (CST, cat #14429S) overnight at 4° C. Membrane was rinsed in a way described previously followed by 1 hour incubation of secondary antibody at room temperature. After washing the film for three times with TBST, ECL color developing solution was applied, and image was captured with Biorad Chemi Doc gel imager. The band gray value was quantified (Image Lab), and protein degradation level was calculated according to the following formulas:
# Level of RAS G12D protein expression=(RAS G12D−compound/β-Actin)−compound/(RAS G12D−DMSO/β-Actin−DMSO)
# Level of degradation (%)=(1−Rate of RAS G12D protein expression)×100
# Symbols of −, +, ++, +++, ++++, +++++ indicate that the degradation level of Ras protein induced by test compounds was 10% or less, 10 to 30%, 30 to 60%, 60 to 70%, 70 to 75%, and greater than 75%, respectively. “NT” indicates not tested.
# “NT” indicates not tested.
# [2] = system: NCI-H358 cells (G12C); assay: Cell proliferation study (Cell Titer Glo, 72 hours), NCI-H358; assay type: cell-based; conditions: Homo sapiens
# Method: (§1) Aspc-1(Cobioer, CBP60546), GP2D(Cobioer, CBP60683), Mia paca2 (Cobioer, CBP60136), NCI-H358 (Cobioer, CBP60544), H727 (Cobioer, CBP60182), MKN-1 (Cobioer, CBP60486), and PSN1 (Cobioer, CBP61215) cells in exponential growth phase were seeded into a 96-well plate (Greiner, 655090) at density of 3E3/well. Cells were cultured overnight at 37° C. with 5% CO2. On the next day, cells were treated with compound at various concentrations for 72 hours in 37° C., 5% CO2 incubator (final DMSO concentration was 0.1%). After treatment, 100 μL Cell Tier Glo (Promega, G7573) were added to every well on the cell plate and incubated at room temperature (RT) for 10 minutes. Cell growth status was measured with Cell Tier Glo (Promega, G7573) following manufacturer's directions. Inhibition level was calculated according to the following formula: […]
# (§2) where the “Maximum Signal” are signal of wells containing DMSO without compound; the “Minimum Signal” are signal of wells recorded at Day 0 prior to commencement of the experiment; and the “Test compound signal” are signal of wells containing compound at established concentrations.
# (§3) The inhibition curve was obtained with GraphPad 7.0 software using four-parameter equation.
# [3] = system: Mia paca2 cells (G12C); assay: Cell proliferation study (Cell Titer Glo, 72 hours), Mia paca2; assay type: cell-based; conditions: Homo sapiens, MIA PaCa-2
# Method: as §1, §2, §3
# [4] = system: NCI-H727 cells (G12V); assay: Cell proliferation study (Cell Titer Glo, 72 hours), NCI-H727; assay type: cell-based; conditions: Homo sapiens
# Method: as §1, §2, §3
# [5] = system: GP2D cells (G12D); assay: Cell proliferation study (Cell Titer Glo, 72 hours), GP2D; assay type: cell-based
# Method: as §1, §2, §3
# [6] = system: AsPc-1 cells (G12D); assay: Cell proliferation study (Cell Titer Glo, 72 hours), AsPc-1; assay type: cell-based; conditions: Homo sapiens, ASPC1
# Method: as §1, §2, §3
# [7] = system: PSN-1 cells (G12R); assay: Cell proliferation study (Cell Titer Glo, 72 hours), PSN-1; assay type: cell-based; conditions: Homo sapiens, PSN1
# Method: as §1, §2, §3
# [8] = system: MKN1 cells (WT); assay: Cell proliferation study (Cell Titer Glo, 72 hours), MKN1; assay type: cell-based; conditions: Homo sapiens, MKN-1
# Method: as §1, §2, §3
# [9] = Pharmacokinetics in male ICR mice; assay type: in vivo; conditions: mouse, plasma
# [10] = system: GP2D cells; assay: Tumor xenograft study (GP2D); assay type: in vivo, Balb/c nude mice (Nu/Nu)
# Method: All studies were conducted in accordance with all applicable regulations and guidelines of the Institutional Animal Care and Use Committee (IACUC). Mice were maintained under pathogen-free conditions, and food and water were provided ad libitum. 6-8-week-old female, Balb/c nude mice (Nu/Nu) were injected subcutaneously with GP2D cells in 100 μL of PBS and Matrigel matrix in the right hind flank with 5×10^6 cells 50:50 cells: Matrigel. Mouse health was monitored daily, and caliper measurements began when tumors were palpable. Tumor volume measurements were determined utilizing the formula 0.5×L×W^2 in which L refers to length and W refers to width of each tumor. When tumors reached an average tumor volume of ˜200 mm^3, mice were randomized into treatment groups. The animals were divided into at least five mice per group. Mice were treated with test compound. Animals were monitored daily, and body weights and tumors were measured twice per week. “TGI” means tumor growth inhibition value.
# [11] = ASPC1, 24 h, Aspc-1 cells, 24 hours, read-out: Rate of protein degradation (%)
Structure (SMILES),"percent protein degradation at 0.01 µM [1, 11] [%]","percent protein degradation at 0.1 µM [1, 11] [%]",Dmax [1] [%],DC50 [1] [nM],IC50 [2] [nM],IC50 [3] [nM],IC50 [4] [nM],IC50 [5] [nM],IC50 [6] [nM],IC50 [7] [nM],IC50 [8] [nM],AUC(0-t) ([9]; IV (3 mg/kg)) [ng·h/mL],half-life ([9]; IV (3 mg/kg)) [h],AUC(0-t) ([9]; PO (10 mg/kg)) [ng·h/mL],half-life ([9]; PO (10 mg/kg)) [h],"TGI (%) ([10]; IP, 10 mg/kg, q3d, 21 days)","percent protein degradation at 0.005 µM ([1]; ASPC1, 24 h, 0.005 μM compound, Aspc-1 cells, 24 hours, read-out: Rate of protein degradation (%)) [%]","TGI (%) ([10]; PO, 30 mg/kg, bid, 14 days)"
CCc1c(F)ccc2cc(O)cc(-c3ncc4c(N5CCC[C@@](C)(O)C5)nc(OCC5(CN6CCC7(CC6)CC(N6CCC(c8ccc9c(C%10CCC(=O)NC%10=O)nn(C)c9c8)CC6)C7)CC5)nc4c3F)c12 (stereo partly shown) [Compound 86],> 75,> 75,78,1 to 10,17.6,3.38,2.45,0.158,15.6,459,400,1330,14.3,103,6.52,75.8,–,–
CCc1c(F)ccc2cc(O)cc(-c3ncc4c(N5CCC[C@@](C)(O)C5)nc(OCC5(CN6CCC(CN7CCC(c8ccc9c(C%10CCC(=O)NC%10=O)nn(C)c9c8)CC7)CC6)CC5)nc4c3F)c12 (stereo partly shown) [Compound 101],70 to 75,70 to 75,–,1 to 10,23.9,9.51,16.4,0.214,109,463,409,–,–,–,–,–,–,–
CCc1c(F)ccc2cc(O)cc(-c3ncc4c(N5CCC[C@]6(CCO6)C5)nc(OCC5(CN6CCC7(CC6)CC(N6CCC(c8cc9c(cc8F)c(N8CCC(=O)NC8=O)nn9C)CC6)C7)CC5)nc4c3F)c12 [Compound 202],–,–,81,1 to 10,17.1,–,3.61,0.06,7.83,–,–,–,–,–,–,–,> 75,75.8
